According to publication PMC11413854, “Reversible Control of Native GluN2B-Containing NMDA Receptors with Visible Light” (ACS Chemical Neuroscience, 2024):
“Also recorded” adds a separate entry of the source. Where two headings read alike, the source gives them in different places.

Molecular target: T1, GluN1/GluN2B NMDA receptors (UniProt P35439+Q01097)
T1 construct: expressed in transfected cells; host or cells: Xenopus laevis oocytes (nuclear cDNA injection)
Assay: TEVC electrophysiology on Xenopus oocytes expressing wt GluN1/GluN2B NMDARs
Assay type: cell-based, rat GluN1, mouse GluN2B
Details: for remaining activity at 2 µM / remaining activity at 7.5 µM / remaining activity at 10 µM / remaining activity at 25 µM / remaining activity at 70 µM / remaining activity at 1 µM / remaining activity at 5 µM / remaining activity at 50 µM / remaining activity at 90 µM / remaining activity at 100 µM / remaining activity at 0.01 µM / remaining activity at 0.025 µM / remaining activity at 0.05 µM / remaining activity at 0.1 µM / remaining activity at 0.15 µM: GluN1/GluN2B wt, read-out: Relative current (IOpto/I0); for UV/dark IC50 ratio (365 nm PSS vs dark): preilluminated in solution; for shift in IC50 compared to parent compound: trans configuration (dark); for remaining activity at 0.01 µM: 0.010 µM; for remaining activity at 0.05 µM: 0.050 µM; for remaining activity at 0.1 µM: 0.100 µM; for remaining activity at 0.15 µM: 0.150 µM
Excerpt: The activity of OptoNAM-3 was functionally monitored by electrophysiology on Xenopus oocytes (see Methods). To assess the light-dependent effect, we tested the activities of the dark PSS (mostly trans) and the UV PSS (mostly cis, see above) separately. For each concentration, we prepared a solution divided into two samples: one in which the compound was kept in the dark for the duration of the experiment (dark PSS state); and the other that was preilluminated with either 350 or 365 nm light (350 or 365 nm PSS) and then kept away from the light for the duration of the experiment in order to avoid photoisomerization of the compounds by ambient light (see Methods). […] We generated dose–response curves of OptoNAM-3 dark and UV PSS on wild-type (wt) GluN1/GluN2B NMDA receptors (Figure 3A) in the presence of saturating concentrations of agonists (100 μM glutamate and glycine).
We used cDNA coding for rat GluN1–1a (named GluN1 herein) (GenBank: U08261.1), rat GluN2A (GenBank: D13211.1), mouse GluN2B (GenBank: D10651.2), rat GluA1 flop (GenBank: M36418.2), and rat Myc-GluA2(Q)-flip (GenBank: AF164344.1) cloned into pcDNA3-based expression plasmids. GluK2 (GenBank: Z11548.1) corresponds to the fully RNA-edited version.[80] The GluN2B-ΔNTD construct is from ref[45] and GluN2B–N615K is from ref[81]. Single mutants GluN2B-Q110G and GluN1-L135H were from ref[19]. The GluA2 cDNA contains a Myc tag ([…]) fused between the signal peptide and the N-terminus sequences, and the GluA2 subunit is […] for its Q/R/N site (GluA2(Q)) to allow permeation of homomeric GluA2 receptors.[2] cDNAs coding for rat GluN2C (GenBank: M91563.1) and GluN2D subunits (GenBank: L31611.1) were in prK5 plasmids.
Oocytes from Xenopus laevis were used for heterologous expression of recombinant NMDA receptors studied using a two-electrode voltage clamp (TEVC). Female Xenopus laevis were housed and ovary bags harvested according to the European Union guidelines (husbandry authorizations #C75–05–31 and #D75–05–31; project authorizations #05137.02; and Apafis #28867–2020121814485893). Fragments of ovary bags were also purchased from the “Centre de Ressources Biologiques Xenopes” (now TEFOR, Paris Saclay, France) and from the European Xenopus Resource Center (EXRC, Portsmouth, UK). Xenopus laevis oocytes were harvested and prepared as previously described in ref[82].
Expression of recombinant NMDA receptors was obtained by oocyte nuclear coinjection of 37 nL of a mixture of cDNAs (at 30 ng/μL) coding for GluN1–1a and various GluN2 subunits (ratio 1:1). The protocol in ref[43] was followed for the expression of GluN1/GluN2A/GluN2B triheteromers. The oocytes were transferred in 96-well plates filled with Barth solution (in mM: 88 NaCl, 1 KCl, 0.33 Ca(NO3)2, 0.41 CaCl2, 0.82 MgSO4, 2.4 NaHCO3, and 7.5 HEPES, pH adjusted to 7.3 with NaOH), supplemented with gentamicin ([…]) and 50 μM APV, a selective NMDA receptor antagonist. Plates were then stored at 18 °C for 24 h for GluN1/GluN2A expression and for 48––72 h for the expression of GluN1/Glu2B, GluN1/GluN2A/GluN2B, and mutants.
TEVC recordings were performed 1–3 days following injection. TEVC recordings were performed using an Oocyte Clamp amplifier OC-725 (Warner Instruments) and computer-controlled via a 1440A Digidata (Molecular Devices). Currents were sampled at 100 Hz and low-pass-filtered at 20 Hz using an 8-pole Bessel filter (900 Series, Frequency Devices Inc.).

[1] = 365 nm PSS, 100 µM glutamate + glycine, Xenopus oocytes, read-out: IC50 on GluN1/GluN2B receptors, preilluminated with 365 nm
[2] = Sup. Fig. 2G, trans isomer, source: this paper, read-out: activity (Ki or IC50)

T1 sequence (Q01097 27-1482, other chains not shown): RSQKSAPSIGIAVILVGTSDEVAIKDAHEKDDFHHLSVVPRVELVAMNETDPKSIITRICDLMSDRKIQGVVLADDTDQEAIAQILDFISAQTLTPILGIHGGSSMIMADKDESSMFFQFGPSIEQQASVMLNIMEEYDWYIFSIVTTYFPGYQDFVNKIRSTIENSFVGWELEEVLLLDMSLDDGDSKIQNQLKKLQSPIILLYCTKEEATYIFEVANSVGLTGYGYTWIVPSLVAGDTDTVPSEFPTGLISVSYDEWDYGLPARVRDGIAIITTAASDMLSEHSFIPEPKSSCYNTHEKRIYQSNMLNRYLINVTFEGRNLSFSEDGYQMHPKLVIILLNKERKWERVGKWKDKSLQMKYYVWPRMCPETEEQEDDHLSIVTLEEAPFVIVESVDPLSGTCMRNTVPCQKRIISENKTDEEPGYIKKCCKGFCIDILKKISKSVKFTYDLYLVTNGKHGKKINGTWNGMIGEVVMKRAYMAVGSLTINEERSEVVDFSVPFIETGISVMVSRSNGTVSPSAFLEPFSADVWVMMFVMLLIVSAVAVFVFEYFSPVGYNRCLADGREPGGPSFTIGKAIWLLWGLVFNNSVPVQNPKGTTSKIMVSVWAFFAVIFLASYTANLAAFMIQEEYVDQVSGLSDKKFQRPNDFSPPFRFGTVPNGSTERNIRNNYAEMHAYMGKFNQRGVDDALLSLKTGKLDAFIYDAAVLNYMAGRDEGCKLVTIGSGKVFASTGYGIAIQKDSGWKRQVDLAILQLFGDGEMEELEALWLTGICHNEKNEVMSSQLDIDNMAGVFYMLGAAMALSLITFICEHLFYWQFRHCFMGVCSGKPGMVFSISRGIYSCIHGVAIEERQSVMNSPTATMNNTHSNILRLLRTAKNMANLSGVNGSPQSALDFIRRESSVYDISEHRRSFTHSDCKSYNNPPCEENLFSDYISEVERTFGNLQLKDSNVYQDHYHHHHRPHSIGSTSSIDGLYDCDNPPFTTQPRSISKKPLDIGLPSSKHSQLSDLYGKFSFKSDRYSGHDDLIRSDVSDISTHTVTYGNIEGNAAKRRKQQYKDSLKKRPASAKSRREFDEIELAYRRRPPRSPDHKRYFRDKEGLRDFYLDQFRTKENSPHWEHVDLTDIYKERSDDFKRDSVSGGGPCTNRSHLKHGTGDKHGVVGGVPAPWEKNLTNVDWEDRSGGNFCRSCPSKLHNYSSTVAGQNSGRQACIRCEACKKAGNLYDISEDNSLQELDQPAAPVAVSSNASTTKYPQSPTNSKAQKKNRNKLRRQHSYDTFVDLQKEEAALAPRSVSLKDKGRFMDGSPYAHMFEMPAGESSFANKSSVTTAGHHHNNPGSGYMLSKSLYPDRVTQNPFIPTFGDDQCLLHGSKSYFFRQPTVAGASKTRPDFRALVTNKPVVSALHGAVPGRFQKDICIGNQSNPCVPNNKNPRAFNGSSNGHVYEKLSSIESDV

SMILES: Nc1ccnc(/N=N/c2ccccc2)c1 [OptoNAM-1, (E)-2-(phenyldiazenyl)pyridin-4-amine]
- IC50 [1]: 37 ± 2 µM
- remaining activity at 2 µM (365 nm PSS): 91.1%
- remaining activity at 7.5 µM (365 nm PSS): 81.8%
- remaining activity at 10 µM (365 nm PSS): 78%
- remaining activity at 25 µM (365 nm PSS): 58.1%
- remaining activity at 70 µM (365 nm PSS): 35%
- remaining activity at 2 µM (dark PSS (trans)): 83.8%
- remaining activity at 7.5 µM (dark PSS (trans)): 66.1%
- remaining activity at 10 µM (dark PSS (trans)): 49.9%
- remaining activity at 25 µM (dark PSS (trans)): 28.4%
- remaining activity at 70 µM (dark PSS (trans)): 13.4%
- IC50 [2]: 11 µM
- UV/dark IC50 ratio (365 nm PSS vs dark) (Xenopus oocytes): 3.4 fold
- shift in IC50 compared to parent compound: > 1000 fold

SMILES: Cc1cc(N)nc(/N=N/c2ccccc2)c1 [OptoNAM-2, (E)-4-methyl-6-(phenyldiazenyl)pyridin-2-amine]
- IC50 [1]: 117 ± 10 µM
- remaining activity at 1 µM (365 nm PSS): 94.5%
- remaining activity at 5 µM (365 nm PSS): 92.7%
- remaining activity at 10 µM (365 nm PSS): 90%
- remaining activity at 25 µM (365 nm PSS): 84.2%
- remaining activity at 50 µM (365 nm PSS): 63.5%
- remaining activity at 90 µM (365 nm PSS): 50%
- remaining activity at 100 µM (365 nm PSS): 49.3%
- remaining activity at 1 µM (dark PSS (trans)): 92.5%
- remaining activity at 5 µM (dark PSS (trans)): 84.8%
- remaining activity at 10 µM (dark PSS (trans)): 75.5%
- remaining activity at 25 µM (dark PSS (trans)): 47.3%
- remaining activity at 50 µM (dark PSS (trans)): 31.1%
- remaining activity at 90 µM (dark PSS (trans)): 22.1%
- remaining activity at 100 µM (dark PSS (trans)): 14.4%
- IC50 [2]: 24 µM
- UV/dark IC50 ratio (365 nm PSS vs dark) (Xenopus oocytes): 4.9 fold
- shift in IC50 compared to parent compound: > 1000 fold

SMILES: CS(=O)(=O)Nc1ccc2nc(Cc3ccc(/N=N/c4ccccc4)cc3)[nH]c2c1 [OptoNAM-4, (E)-N-(2-(4-(phenyldiazenyl)benzyl)-1H-benzo[d]imidazol-6-yl)methanesulfonamide]
- IC50 (365 nm PSS, Xenopus oocytes, read-out: IC50 on GluN1/GluN2B receptors, pre-illuminated with 365 nm): 0.031 ± 0.029 µM
- remaining activity at 0.01 µM (365 nm PSS): 69.6%
- remaining activity at 0.025 µM (365 nm PSS): 50.1%
- remaining activity at 0.05 µM (365 nm PSS): 44.8%
- remaining activity at 0.1 µM (365 nm PSS): 34%
- remaining activity at 0.15 µM (365 nm PSS): 21%
- remaining activity at 0.01 µM (dark PSS (trans)): 68.3%
- remaining activity at 0.025 µM (dark PSS (trans)): 45.6%
- remaining activity at 0.05 µM (dark PSS (trans)): 39%
- remaining activity at 0.1 µM (dark PSS (trans)): 29.7%
- remaining activity at 0.15 µM (dark PSS (trans)): 15%
- IC50 (dark PSS (trans), Xenopus oocytes, read-out: IC50 on GluN1/GluN2B receptors in the dark): 0.024 ± 0.026 µM
- photodependence of activity on GluN1/GluN2B NMDARs (dark vs 365 nm PSS): not photodependent; also recorded: did not display any photodependence of activity
- UV/dark IC50 ratio (365 nm PSS vs dark) (Xenopus oocytes): 1.3 fold
